# Test results published in ChEMBL document CHEMBL1201862, “PubChem BioAssay data set” (2004).
# The source made the active and inactive calls.
# Experiments:
# HEK293 = experiment: SAR analysis of compounds that are cytotoxic to HEK293 - Set 3. [Related pubchem assays (depositor defined):AID1575, AID1578, AID1848, AID1849, AID2001, AID2333, AID2334, AID2335, AID2337, AID2469]; assay type: functional, cell-based; details: Homo sapiens
# [1] = biological target: Nucleotide-binding oligomerization domain-containing protein 1 (Homo sapiens, UniProt Q9Y239); experiment: SAR analysis of compounds that inhibit NOD1 - Set 3. [Related pubchem assays (depositor defined):AID1566, AID1575, AID1578, AID1849, AID1852, AID2333, AID2335, AID2466]; assay type: functional
# Bcl-2-related protein A1 [2] = biological target: T1, Bcl-2-related protein A1 (Mus musculus, UniProt Q07440); experiment: Bfl-1 inhibitors blocking BH3 peptide binding, confirmation, biochemical, TR-FRET, mouse Bfl-1 (AID 621);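 also: TR-FRET binding of GST-Bfl-1 to FITC-labelled Bid peptide via terbium antibody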
# T1 sequence (Q07440 whole entry): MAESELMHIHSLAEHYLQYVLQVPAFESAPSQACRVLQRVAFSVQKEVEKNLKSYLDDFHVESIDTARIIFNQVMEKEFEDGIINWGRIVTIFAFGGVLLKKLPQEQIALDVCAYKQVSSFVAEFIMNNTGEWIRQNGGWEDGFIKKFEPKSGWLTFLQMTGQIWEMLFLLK
# [3] = biological target: Nucleotide-binding oligomerization domain-containing protein 2 (Homo sapiens, UniProt Q9HC29); experiment: NOD2 signaling inhibitors, analog potency, SAR follow-up, cell-based, set 3 (AID 2799); assay type: functional
# [4] = biological target: Glyceraldehyde-3-phosphate dehydrogenase (Homo sapiens, UniProt P04406)
# Sequence of Glyceraldehyde-3-phosphate dehydrogenase (P04406 whole entry): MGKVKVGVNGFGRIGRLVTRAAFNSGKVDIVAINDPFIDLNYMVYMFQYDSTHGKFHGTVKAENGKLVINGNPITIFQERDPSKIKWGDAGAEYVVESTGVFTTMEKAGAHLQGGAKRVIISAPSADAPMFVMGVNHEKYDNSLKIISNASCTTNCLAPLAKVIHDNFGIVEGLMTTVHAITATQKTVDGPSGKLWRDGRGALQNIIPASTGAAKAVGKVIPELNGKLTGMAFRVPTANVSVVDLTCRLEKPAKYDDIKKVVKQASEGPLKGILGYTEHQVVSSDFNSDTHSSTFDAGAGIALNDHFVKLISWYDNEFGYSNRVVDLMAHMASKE
# Bcl-2-related protein A1 [5] = biological target: T1, Bcl-2-related protein A1; experiment: Bfl-1 binding inhibitors, SAR follow-up, biochemical, fluorescence polarization (AID 1070)
# Tumor necrosis factor = Tumor necrosis factor (Homo sapiens, UniProt P01375); experiment: TNFa-triggered NF-kB activation inhibitors, SAR follow-up, cell-based, set 3 (AID 2801); assay type: functional
# CAAX prenyl protease 2 = CAAX prenyl protease 2 (Saccharomyces cerevisiae S288c, UniProt Q03530); assay type: biochemical
# [6] = mammalian cell cytotoxicity, dose response, cytotoxicity control, plate reader, cherry-pick samples (AID 504397); assay type: functional, cell-based
# SUMO-activating enzyme [7] = biological target: T2, SUMO-activating enzyme (Homo sapiens, UniProt Q9UBT2); experiment: SUMOylation inhibitor hit validation, confirmation, SUMOylation inhibitor project, biochemical, AlphaScreen (AID 2018); assay type: functional
# T2 sequence (Q9UBE0 whole entry): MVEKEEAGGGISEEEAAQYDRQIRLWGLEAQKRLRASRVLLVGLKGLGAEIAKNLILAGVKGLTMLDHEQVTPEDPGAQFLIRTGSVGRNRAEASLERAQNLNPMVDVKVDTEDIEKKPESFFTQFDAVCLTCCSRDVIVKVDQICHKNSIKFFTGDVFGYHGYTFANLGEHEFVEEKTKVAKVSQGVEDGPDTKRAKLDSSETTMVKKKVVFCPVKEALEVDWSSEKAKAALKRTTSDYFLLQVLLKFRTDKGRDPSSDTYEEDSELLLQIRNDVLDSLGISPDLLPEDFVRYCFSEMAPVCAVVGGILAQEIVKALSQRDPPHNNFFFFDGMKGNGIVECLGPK
# T2 sequence (Q9UBT2 whole entry): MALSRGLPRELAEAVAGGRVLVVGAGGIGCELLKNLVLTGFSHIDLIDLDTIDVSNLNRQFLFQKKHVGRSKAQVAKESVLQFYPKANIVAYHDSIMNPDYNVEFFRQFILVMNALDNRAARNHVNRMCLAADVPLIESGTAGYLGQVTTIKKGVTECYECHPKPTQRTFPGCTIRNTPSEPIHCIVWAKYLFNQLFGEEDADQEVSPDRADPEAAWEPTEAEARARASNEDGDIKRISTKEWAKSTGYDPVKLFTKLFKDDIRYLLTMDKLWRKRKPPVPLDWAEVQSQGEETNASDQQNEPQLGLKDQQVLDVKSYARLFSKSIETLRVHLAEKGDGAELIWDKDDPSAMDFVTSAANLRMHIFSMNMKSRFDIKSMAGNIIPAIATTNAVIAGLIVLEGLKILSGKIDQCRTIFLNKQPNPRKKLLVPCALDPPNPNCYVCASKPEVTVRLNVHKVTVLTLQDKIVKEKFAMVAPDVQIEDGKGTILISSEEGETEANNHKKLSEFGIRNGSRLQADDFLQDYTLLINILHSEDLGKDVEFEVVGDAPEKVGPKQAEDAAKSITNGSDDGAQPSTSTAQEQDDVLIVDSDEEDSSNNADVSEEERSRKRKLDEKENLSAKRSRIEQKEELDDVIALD
# Hexokinase HKDC1 = biological target: T3, Hexokinase HKDC1 (Homo sapiens, UniProt Q2TB90); experiment: HKDC1 hexokinase activators, dose response, biochemical, W721R variant (AID 504730); assay type: functional
# T3 sequence (Q2TB90 whole entry): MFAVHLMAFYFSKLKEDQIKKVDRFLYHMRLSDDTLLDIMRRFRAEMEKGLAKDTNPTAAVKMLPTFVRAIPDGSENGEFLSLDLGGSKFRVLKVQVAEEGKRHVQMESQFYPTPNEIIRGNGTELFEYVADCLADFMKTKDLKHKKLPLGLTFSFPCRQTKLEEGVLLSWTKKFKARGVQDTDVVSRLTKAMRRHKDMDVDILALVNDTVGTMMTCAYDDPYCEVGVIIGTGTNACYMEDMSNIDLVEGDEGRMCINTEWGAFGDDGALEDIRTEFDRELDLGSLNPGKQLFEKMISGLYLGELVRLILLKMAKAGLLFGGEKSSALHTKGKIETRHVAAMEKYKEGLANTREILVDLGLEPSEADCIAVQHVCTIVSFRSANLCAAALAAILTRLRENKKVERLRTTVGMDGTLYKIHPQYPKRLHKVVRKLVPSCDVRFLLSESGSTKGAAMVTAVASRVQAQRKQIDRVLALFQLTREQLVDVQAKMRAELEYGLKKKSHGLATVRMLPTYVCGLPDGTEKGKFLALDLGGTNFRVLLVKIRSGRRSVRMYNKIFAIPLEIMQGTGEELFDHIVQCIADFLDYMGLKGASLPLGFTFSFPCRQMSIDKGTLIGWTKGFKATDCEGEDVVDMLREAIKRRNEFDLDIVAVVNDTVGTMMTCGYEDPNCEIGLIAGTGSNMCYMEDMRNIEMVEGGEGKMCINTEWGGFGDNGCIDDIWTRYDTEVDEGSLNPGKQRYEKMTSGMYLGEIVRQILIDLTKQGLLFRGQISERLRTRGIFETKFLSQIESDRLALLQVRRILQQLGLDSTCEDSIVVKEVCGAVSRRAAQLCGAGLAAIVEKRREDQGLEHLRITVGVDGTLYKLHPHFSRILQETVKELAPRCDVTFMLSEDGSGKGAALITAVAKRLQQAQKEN
# [8] = biological target: T4, Voltage-gated N-type calcium channel alpha-1B subunit/Amyloid beta A4 precursor protein-binding family A member 1 (Homo sapiens, UniProt Q00975+Q02410); assay type: protein assay
# T4 sequence (Q00975 whole entry): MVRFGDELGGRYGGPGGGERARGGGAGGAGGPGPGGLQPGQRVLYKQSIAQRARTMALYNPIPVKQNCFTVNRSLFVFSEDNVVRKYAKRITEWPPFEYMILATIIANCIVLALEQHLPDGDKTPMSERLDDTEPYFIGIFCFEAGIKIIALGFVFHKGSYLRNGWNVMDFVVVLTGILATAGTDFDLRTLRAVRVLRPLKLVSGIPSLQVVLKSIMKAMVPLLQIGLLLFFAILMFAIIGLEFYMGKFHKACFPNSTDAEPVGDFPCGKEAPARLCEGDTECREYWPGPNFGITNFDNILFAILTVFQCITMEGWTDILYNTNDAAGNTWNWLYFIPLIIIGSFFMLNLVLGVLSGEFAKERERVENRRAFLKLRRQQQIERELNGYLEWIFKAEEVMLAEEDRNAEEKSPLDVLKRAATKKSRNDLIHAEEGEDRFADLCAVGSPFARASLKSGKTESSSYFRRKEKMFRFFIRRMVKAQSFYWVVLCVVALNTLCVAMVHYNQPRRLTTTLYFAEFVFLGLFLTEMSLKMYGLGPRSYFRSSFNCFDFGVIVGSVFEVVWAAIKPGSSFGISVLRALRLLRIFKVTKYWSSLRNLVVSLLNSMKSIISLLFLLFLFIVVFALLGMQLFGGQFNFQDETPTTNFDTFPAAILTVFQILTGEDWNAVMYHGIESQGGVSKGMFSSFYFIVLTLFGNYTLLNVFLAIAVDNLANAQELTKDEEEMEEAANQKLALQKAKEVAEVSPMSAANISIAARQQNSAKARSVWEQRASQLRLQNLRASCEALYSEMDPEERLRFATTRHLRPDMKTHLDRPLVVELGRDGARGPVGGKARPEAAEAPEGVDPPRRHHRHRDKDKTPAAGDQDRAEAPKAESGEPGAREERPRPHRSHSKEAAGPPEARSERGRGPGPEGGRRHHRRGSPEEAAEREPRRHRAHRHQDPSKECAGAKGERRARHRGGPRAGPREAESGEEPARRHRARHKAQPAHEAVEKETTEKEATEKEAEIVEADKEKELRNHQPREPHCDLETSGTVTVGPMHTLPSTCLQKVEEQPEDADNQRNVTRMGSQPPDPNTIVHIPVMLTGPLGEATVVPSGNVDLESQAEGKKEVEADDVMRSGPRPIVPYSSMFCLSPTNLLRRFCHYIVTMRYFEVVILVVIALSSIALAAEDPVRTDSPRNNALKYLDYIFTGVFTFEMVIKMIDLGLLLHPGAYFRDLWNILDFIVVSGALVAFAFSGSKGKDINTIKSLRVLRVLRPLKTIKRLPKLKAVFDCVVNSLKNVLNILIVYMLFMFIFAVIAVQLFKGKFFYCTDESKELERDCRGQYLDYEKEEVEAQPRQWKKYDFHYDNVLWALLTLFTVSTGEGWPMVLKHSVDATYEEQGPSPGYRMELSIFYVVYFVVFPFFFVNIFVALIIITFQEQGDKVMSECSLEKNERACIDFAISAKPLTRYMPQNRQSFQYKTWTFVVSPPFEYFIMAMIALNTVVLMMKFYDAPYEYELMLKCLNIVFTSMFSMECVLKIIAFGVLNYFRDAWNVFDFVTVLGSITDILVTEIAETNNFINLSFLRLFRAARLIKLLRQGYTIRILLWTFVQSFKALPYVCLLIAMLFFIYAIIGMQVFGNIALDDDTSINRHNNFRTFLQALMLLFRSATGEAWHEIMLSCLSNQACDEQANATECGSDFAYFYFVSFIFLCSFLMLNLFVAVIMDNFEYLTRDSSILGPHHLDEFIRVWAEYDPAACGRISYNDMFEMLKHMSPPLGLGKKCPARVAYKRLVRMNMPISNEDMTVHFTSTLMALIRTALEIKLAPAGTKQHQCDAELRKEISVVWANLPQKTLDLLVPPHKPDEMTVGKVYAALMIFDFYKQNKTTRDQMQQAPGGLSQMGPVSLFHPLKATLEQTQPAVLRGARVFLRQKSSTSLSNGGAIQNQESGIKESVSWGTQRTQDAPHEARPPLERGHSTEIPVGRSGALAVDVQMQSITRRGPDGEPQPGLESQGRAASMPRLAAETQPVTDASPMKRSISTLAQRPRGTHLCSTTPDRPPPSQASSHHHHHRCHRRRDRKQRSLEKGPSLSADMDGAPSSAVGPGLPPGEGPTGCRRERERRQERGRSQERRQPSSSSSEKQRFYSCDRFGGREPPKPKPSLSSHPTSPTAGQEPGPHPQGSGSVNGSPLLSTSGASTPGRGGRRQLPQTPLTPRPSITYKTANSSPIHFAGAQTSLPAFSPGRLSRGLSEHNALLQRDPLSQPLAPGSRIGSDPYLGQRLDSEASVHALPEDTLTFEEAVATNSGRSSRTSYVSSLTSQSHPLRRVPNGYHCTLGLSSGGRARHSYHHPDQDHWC
# T4 sequence (Q02410 whole entry): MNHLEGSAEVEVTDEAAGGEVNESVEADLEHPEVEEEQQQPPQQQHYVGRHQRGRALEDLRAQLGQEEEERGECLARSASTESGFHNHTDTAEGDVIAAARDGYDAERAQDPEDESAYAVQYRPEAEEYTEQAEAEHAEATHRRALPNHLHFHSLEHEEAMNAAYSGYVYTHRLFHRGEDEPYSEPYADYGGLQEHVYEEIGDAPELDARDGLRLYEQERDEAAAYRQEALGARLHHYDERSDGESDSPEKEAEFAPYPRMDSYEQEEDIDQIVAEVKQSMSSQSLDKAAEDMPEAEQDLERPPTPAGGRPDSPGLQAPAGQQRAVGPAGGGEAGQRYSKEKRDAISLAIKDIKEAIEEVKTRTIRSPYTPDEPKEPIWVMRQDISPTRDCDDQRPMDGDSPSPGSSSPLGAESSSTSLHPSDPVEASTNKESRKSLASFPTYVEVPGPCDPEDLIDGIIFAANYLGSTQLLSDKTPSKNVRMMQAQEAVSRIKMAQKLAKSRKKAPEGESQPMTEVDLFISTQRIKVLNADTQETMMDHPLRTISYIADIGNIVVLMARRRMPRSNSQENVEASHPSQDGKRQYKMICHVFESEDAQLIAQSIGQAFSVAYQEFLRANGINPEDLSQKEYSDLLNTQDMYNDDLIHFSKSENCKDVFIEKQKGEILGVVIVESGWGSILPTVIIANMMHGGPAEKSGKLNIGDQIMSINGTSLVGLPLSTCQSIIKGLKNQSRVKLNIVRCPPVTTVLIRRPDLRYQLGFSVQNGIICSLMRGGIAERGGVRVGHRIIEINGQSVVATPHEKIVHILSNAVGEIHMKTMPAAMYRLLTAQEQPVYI
# [9] = biological target: T4, Voltage-gated N-type calcium channel alpha-1B subunit/Amyloid beta A4 precursor protein-binding family A member 1; assay type: protein assay; remark: listed apart in the source
# SUMO-activating enzyme [10] = biological target: T2, SUMO-activating enzyme; experiment: inhibitors of in vitro SUMOylation cascade, primary screen, biochemical, HTRF, uHTS (AID 2006); assay type: protein-complex assay
# Mucolipin-3 = biological target: T5, Mucolipin-3 (Homo sapiens, UniProt Q8TDD5); experiment: Fluorescence counterscreen assay for […] agonists: dose response cell-based high-throughput screening assay to identify agonists of the transient receptor potential channel ML3 (TRPML3). [Related pubchem assays: 1424, 1448 ]; assay type: functional
# T5 sequence (Q8TDD5 whole entry): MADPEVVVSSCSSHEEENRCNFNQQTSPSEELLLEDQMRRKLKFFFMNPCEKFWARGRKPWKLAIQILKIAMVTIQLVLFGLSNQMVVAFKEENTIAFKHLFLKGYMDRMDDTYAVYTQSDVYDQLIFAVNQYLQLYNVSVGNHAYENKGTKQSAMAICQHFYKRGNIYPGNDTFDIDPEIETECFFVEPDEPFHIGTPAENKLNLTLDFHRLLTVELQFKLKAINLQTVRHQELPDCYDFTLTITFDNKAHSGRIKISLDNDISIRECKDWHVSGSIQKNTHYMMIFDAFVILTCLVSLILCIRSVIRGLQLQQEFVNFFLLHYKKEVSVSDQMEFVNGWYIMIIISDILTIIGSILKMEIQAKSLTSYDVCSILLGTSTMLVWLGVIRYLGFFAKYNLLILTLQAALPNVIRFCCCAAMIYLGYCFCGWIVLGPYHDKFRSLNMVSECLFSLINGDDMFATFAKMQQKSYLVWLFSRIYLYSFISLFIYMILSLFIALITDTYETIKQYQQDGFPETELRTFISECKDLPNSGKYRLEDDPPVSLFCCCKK
# Ion channel NompC = Ion channel NompC (Danio rerio, UniProt Q7T1G6); experiment: Dose response cell-based high-throughput screening assay for agonists of the transient receptor potential channel N1 (TRPN1). [Related pubchem assays (depositor defined):AID1424, AID1448]; assay type: functional
# [11] = biological target: T6, Alkaline phosphatase, tissue-nonspecific isozyme (Homo sapiens, UniProt P05186); experiment: TNAP enzyme inhibition by screening hits, dose response, selectivity assay for mouse IAP inhibitor project, biochemical, human TNAP, uHTS hits (AID 488906); assay type: functional
# T6 sequence (P05186 whole entry): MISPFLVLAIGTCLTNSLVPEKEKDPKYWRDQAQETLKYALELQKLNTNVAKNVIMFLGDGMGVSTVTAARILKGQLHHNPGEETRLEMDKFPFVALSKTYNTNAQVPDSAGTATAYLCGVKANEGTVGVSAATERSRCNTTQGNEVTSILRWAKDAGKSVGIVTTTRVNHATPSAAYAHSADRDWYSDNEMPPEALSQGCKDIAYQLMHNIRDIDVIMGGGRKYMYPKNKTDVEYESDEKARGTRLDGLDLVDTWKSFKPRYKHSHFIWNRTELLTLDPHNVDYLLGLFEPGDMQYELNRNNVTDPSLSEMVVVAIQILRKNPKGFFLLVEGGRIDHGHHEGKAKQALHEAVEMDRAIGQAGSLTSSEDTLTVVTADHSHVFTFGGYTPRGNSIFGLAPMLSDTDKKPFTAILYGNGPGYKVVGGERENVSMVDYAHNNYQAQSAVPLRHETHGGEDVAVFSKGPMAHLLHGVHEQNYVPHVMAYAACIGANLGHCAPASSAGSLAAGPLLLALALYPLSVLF
# [12] = biological target: Intestinal-type alkaline phosphatase (Homo sapiens, UniProt P09923); experiment: inhibition of human intestinal alkaline phosphatase – biochemical, dose response (AID 488876); assay type: functional
# [13] = biological target: Intestinal-type alkaline phosphatase (Mus musculus, UniProt P24822); experiment: PubChem AID 488785; assay type: functional
# [14] = biological target: Dual specificity protein phosphatase 6 (Rattus norvegicus, UniProt Q64346); experiment: MKP-3 phosphatase inhibitors, primary screen, biochemical, rat enzyme, in vitro (AID 425)
# [15] = biological target: T7, Dual specificity protein phosphatase 3 (Homo sapiens, UniProt P51452); experiment: VHR1 phosphatase inhibitors, biochemical (AID 1878)
# T7 sequence (P51452 whole entry): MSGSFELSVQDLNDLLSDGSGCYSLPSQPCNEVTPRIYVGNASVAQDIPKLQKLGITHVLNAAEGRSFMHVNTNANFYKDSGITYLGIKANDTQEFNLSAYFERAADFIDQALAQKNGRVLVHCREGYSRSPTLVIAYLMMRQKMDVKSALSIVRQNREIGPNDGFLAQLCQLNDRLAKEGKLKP
# [16] = biological target: T7, Dual specificity protein phosphatase 3; experiment: VHR1 phosphatase inhibitors, primary screen, biochemical, absorbance, uHTS (AID 1654)
# [17] = biological target: T8, Kappa-type opioid receptor (Homo sapiens, UniProt P41145); experiment: KOR agonist analogs, arrestin-GFP redistribution, SAR follow-up, imaging, image-based, set 3 (AID 488833); assay type: functional
# T8 sequence (P41145 whole entry): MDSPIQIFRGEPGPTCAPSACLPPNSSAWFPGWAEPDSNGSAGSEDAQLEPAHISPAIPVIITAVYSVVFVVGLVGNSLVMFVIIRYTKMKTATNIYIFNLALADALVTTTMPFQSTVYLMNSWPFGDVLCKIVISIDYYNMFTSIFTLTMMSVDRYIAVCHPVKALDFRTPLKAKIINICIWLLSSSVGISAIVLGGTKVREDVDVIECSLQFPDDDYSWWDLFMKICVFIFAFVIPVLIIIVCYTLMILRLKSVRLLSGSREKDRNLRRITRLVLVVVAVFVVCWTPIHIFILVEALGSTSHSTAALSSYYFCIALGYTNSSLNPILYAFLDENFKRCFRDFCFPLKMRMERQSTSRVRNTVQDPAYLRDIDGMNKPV
# [18] = biological target: T8, Kappa-type opioid receptor; experiment: SAR analysis of small molecule agonists of the kappa opioid receptor via a luminescent beta-arrestin assay - Set 3. [Related pubchem assays (depositor defined):AID1777, AID1785, AID1786, AID1966, AID2133, AID2136, AID2284, AID2500]; assay type: functional
# Mu-type opioid receptor = Mu-type opioid receptor (Homo sapiens, UniProt P35372); experiment: SAR Analysis of Agonists of the MOR Receptor using an Image-Based Assay - Set 3. [Related pubchem assays (depositor defined):AID1777, AID1785, AID1786, AID1966, AID2133, AID2136, AID2284, AID2285, AID2352]; assay type: functional
# [19] = biological target: Delta-type opioid receptor (Homo sapiens, UniProt P41143); experiment: SAR Analysis of Agonists of the DOR Receptor using an Image-Based Assay - Set 3. [Related pubchem assays (depositor defined):AID1777, AID1786]; assay type: functional
# [20] = inhibitors of SNCA 5'UTR-driven reporter translation, confirmation, H4 neuroglioma cells, luminescence (AID 1988); assay type: functional, cell-based
# [21] = Luminescence-based counterscreen assay for KLF5 inhibitors: dose response cell-based high throughput screening assay to identify cytotoxic compounds using the IEC-6 intestinal epithelial cell line. [Related pubchem assays: 1700 (Primary screen.), 1834 (Confirmation screen.), 1858 (Summary AID.), 1905 (Counterscreen.)]; assay type: functional
# DLD-1 [22] = experiment: reduction of KLF5 protein levels, late-stage follow-up, orthogonal assay for KLF5 inhibitor project, western blot, chemiluminescence, DLD-1 cells, titration (AID 485336); assay type: functional, cell-based; details: Homo sapiens
# Vero [23] = experiment: host cell cytotoxicity of antiviral hits, dose response, cytotoxicity control for West Nile virus antiviral project, secondary assay (AID 1650); assay type: functional; details: Chlorocebus sabaeus
# DLD-1 [24] = experiment: cytotoxicity in DLD-1 colorectal cells, late-stage follow-up, cytotoxicity control for KLF5 inhibitor project, cell-based, luminescence, round 1 (AID 485338); assay type: functional; details: Homo sapiens
# [25] = Luminescence Cell-Based Dose Response HTS to Identify Inhibitors of 5'UTR Stem-Loop Driven Prion Protein mRNA Translation in H4 Neuroglioblastoma Cells. [Related pubchem assays: 1827 (Project Summary), 1813 (Primary HTS)]; assay type: functional
# Vero [26] = experiment: cells; assay type: functional; details: Chlorocebus sabaeus
# [27] = inhibitors of firefly luciferase expression or activity, dose response, H4 neuroglioma cells, luminescence (AID 1990); assay type: functional, cell-based
# Vero [28] = experiment: cells; assay type: functional, cell-based; details: Chlorocebus sabaeus
compound,measurement,setting,value
COc1ccc(-c2cc(N)n(S(=O)(=O)c3ccc(Cl)cc3)n2)cc1OC,IC50,HEK293,> 20 µM (inactive)
same,IC50,[1],> 20 µM (inactive)
same,IC50,Bcl-2-related protein A1 [2],> 100 µM (not active)
same,IC50,[3],> 20 µM (inactive)
same,IC50,[4],> 100 µM (not active)
same,IC50,Bcl-2-related protein A1 [5],> 100 µM (not active)
same,IC50,Tumor necrosis factor,> 20 µM (inactive)
CC(=O)N(C)c1ccc(NC(=O)/C=C/c2ccccc2Cl)cc1,AC50,CAAX prenyl protease 2,2.06 µM (active)
same,AC50,[6],> 350 µM (inactive)
CCOc1ccc(/C=C2/SC(=S)N(CCC(=O)Nc3ccc(C(=O)O)cc3)C2=O)cc1,IC50,SUMO-activating enzyme [7],16.8 µM (active)
same,EC50,Hexokinase HKDC1,> 80 µM (inactive)
same,IC50,[8],5.5 µM (active)
same,IC50,[9],> 50 µM (inactive)
same,IC50,SUMO-activating enzyme [10],23.6 µM (active)
CCOC(=O)Cn1c(=O)oc2cc(S(=O)(=O)Nc3ccc(F)cc3)ccc21,EC50,Mucolipin-3,> 29.9 µM (not active)
same,EC50,Ion channel NompC,> 29.9 µM (inactive)
S=C(NCCC(c1ccccc1)c1ccccc1)Nc1ccc(Cl)cc1,IC50,[11],> 100 µM (inactive)
same,IC50,[12],> 100 µM (inactive)
same,IC50,[13],9.61 µM (active)
Cc1ccc(NC(=O)Cn2c(O)c(N=NC(=O)c3cc([N+](=O)[O-])ccc3O)c3ccccc32)cc1,IC50,[14],31 µM (active)
same,IC50,[15],6.94 µM (active)
same,IC50,[16],12.9 µM (active)
FC(F)(F)c1ccc(CSc2nnc(-c3ccccn3)n2Cc2ccco2)cc1,EC50,[17],1.22 µM (active)
same,EC50,[18],2.77 µM (active)
same,EC50,Mu-type opioid receptor,> 32 µM (inactive)
same,EC50,[19],> 64 µM (inactive)
C[C@@H]1O[C@@H](O[C@H]2C[C@@H](O)[C@]3(CO)[C@H]4[C@H](O)C[C@]5(C)[C@@H](C6=CC(=O)OC6)CC[C@]5(O)[C@@H]4CC[C@]3(O)C2)[C@H](O)[C@H](O)[C@H]1O [OUABAIN],EC50,[20],< 100 nM (active)
same,IC50,[21],> 39.8 µM (not active)
same,IC50,DLD-1 [22],29.7 nM (active)
same,CC50,Vero [23],160 nM (active)
same,IC50,DLD-1 [24],46.4 nM (active)
same,EC50,[25],< 100 nM (active)
same,CC50,Vero [26],130 nM (active)
same,EC50,[27],< 100 nM (active)
same,IC50,Vero [28],< 50 nM (active)
